Results: publication PMC9007951, “Systematically evaluating DOTATATE and FDG as PET immuno-imaging tracers of cardiovascular inflammation” (Scientific Reports, 2022)

Columns and labels:
[1] = mice; cited from earlier work
Excerpt: This feature is important when performing in vivo imaging and especially in the vasculature, whose signal can be easily contaminated by the blood pool because of partial volume errors. […] We further used the combination of in ...

[2] = Blood half-life of [^68Ga]Ga-DOTATATE, gamma counting of venous blood, two-phase decay fit; format: in vivo, New Zealand White rabbits
Experimental: Adopting a translational approach, the rabbit studies were performed with the [^68Ga]Ga-labeled tracer, which is already being used in the clinic. [^68Ga]Ga-DOTATATE was purchased from Advanced Accelerator Applications (AAA, Millburn, NJ, USA). To determine its pharmacokinetics, three atherosclerotic rabbits and two healthy controls were injected with approximately 190 MBq of [^68Ga]Ga-DOTATATE. Venous blood was sampled at 1, 5, 10, 15, 20, 30, 60, 120, 180, 240 and 300 min after injection through the ear vein. Samples were weighed and gamma counted. Blood half-life data were fitted using a two-phase decay non-linear regression using GraphPad Prism v8.4.3 (Supplementary Table S1). To investigate the tracer blood distribution, blood samples were centrifuged at 2000 g for 15 min at 4 °C to determine the radioactivity concentration in the plasma and cellular fractions. To analyze [^68Ga]Ga-DOTATATE biodistribution, all rabbits were euthanized after the last imaging time-point using an injection of pentobarbital 100 mg/kg and exsanguination of the portal vein. Rabbits were extensively perfused with 1000 mL of saline. Following, tissues (blood, heart, aorta, liver, kidney, skeletal muscle, small and large intestine, fat, stomach, pancreas and bladder) were harvested, weighed and gamma counted.

[3] = Ex vivo gamma counting of whole aorta after PET/CT; format: in vivo, mice; conditions: female, mouse, iv, 5.55 MBq, total radioactivity, median, N = 4
Experimental: S1A) to evaluate the tracer’s biodistribution. After euthanasia, an insulin syringe was used to collect blood samples from the right ventricle. Blood samples were used for the establishment of pharmacokinetics profile. Mice were then perfused with 20 mL of phosphate-buffered saline (PBS) and tissues of interest (heart, aorta, bone marrow, spleen, liver, stomach, bladder, kidneys, intestines, lungs, adrenal gland, muscles and pancreas) were harvested. Tissues were blotted for gamma counting on a Wizard2 2480 automatic gamma counter (Perkin Elmer, Waltham, MA). Values were corrected for decay and normalized to tissue weight to express radioactivity concentration as percentage injected dose per gram (%ID/g). […] To investigate the tracer’s distribution within different blood compartments, after gamma counting, 100 μL of blood were spun down at 2000 g for 15 min at 4 °C. Plasma (supernatant) and cells (pellet) were gamma counted and expressed as percentage of total activity. The remainder of the blood was separated using Lymphoprep density gradient medium (Nycomed Pharma, Zurich, Switzerland) following manufacturer’s instructions. Percentage of activity in mononuclear and polynuclear cells was calculated. […]

OC[C@H]1OC(O)[C@H]([18F])[C@@H](O)[C@@H]1O (stereo partly shown) [[^18F]F-FDG, [^18F]F-fluorodeoxyglucose]
blood half-life [1]: 5.1 min

C[C@@H](O)[C@H](NC(=O)[C@@H]1CSSC[C@H](NC(=O)[C@@H](Cc2ccccc2)NC(=O)CN2CCN(CC(=O)O)CCN(CC(=O)O)CCN(CC(=O)O)CC2)C(=O)N[C@@H](Cc2ccc(O)cc2)C(=O)N[C@H](Cc2c[nH]c3ccccc23)C(=O)N[C@@H](CCCCN)C(=O)N[C@@H]([C@@H](C)O)C(=O)N1)C(=O)O [[^68Ga]Ga-DOTATATE, metal not drawn]
%fast ([2]; athero4mo rabbits, N = 3): 53.17% | %slow ([2]; athero4mo rabbits, N = 3): 46.83% | Weighed t1/2 (weighted half-life) ([2]; athero4mo rabbits, N = 3): 53.66 min | t1/2 fast ([2]; athero4mo rabbits, N = 3): 19.17 min | t1/2 slow ([2]; athero4mo rabbits, N = 3): 92.82 min | %fast ([2]; control rabbits, N = 2): 39.7% | %slow ([2]; control rabbits, N = 2): 60.3% | Weighed t1/2 (weighted half-life) ([2]; control rabbits, N = 2): 21.17 min | t1/2 fast ([2]; control rabbits, N = 2): 3.419 min | t1/2 slow ([2]; control rabbits, N = 2): 32.86 min

C[C@@H](O)[C@H](NC(=O)[C@@H]1CSSC[C@H](NC(=O)[C@@H](Cc2ccccc2)NC(=O)CN2CCN(CC(=O)O)CCN(CC(=O)O)CCN(CC(=O)O)CC2)C(=O)N[C@@H](Cc2ccc(O)cc2)C(=O)N[C@H](Cc2c[nH]c3ccccc23)C(=O)N[C@@H](CCCCN)C(=O)N[C@@H]([C@@H](C)O)C(=O)N1)C(=O)O [[^64Cu]Cu-DOTATATE, metal not drawn]
tissue uptake ([3]; atherosclerotic Apoe^−/− mice after PET/CT): 7.4 %ID/g | tissue uptake ([3]; control C57Bl/6 mice after PET/CT): 3.5 %ID/g
